# Where a SMILES comes first, the peptide text is derived from it. [ ]: non-standard residue; d: D form. Tyr(3-I) = N[C@@H](Cc1ccc(O)c(I)c1)C(=O)O; Sta = CC(C)C[C@H](N)[C@@H](O)CC(=O)O; AEEA = NCCOCCOCC(=O)O
# Assays:
# [1] = tested on: GRPR-expressing PC-3 tumour xenograft; conditions: 0.5 h after injection; co-injection of non-labelled NOTA-PEG4-RM26
# Method: Animal studies were planned and performed in agreement with EU Directive 2010/63/EU for animal experiments and Swedish national legislation concerning protection of laboratory animals. Experiments were approved by the Ethics Committee for Animal Research in Uppsala (C4/16, 26 February 2016). Biodistribution studies were performed in female BALB/C nu/nu mice purchased from Scanbur A/S (Karlslunde, Denmark). GRPR-expressing xenografts were established by subcutaneous injection of 5 × 10^6 PC-3 cells/mouse in the right hind leg of mice 3 weeks before the experiment. The animals were randomized into groups of four mice for each data point.
# Mice were euthanized followed by dislocation of their neck at 0.5 h after injection and blood samples were collected by heart puncture. At 3 and 24 h after injection, mice were euthanized by an intraperitoneal injection of anaesthetic solution (20 µL of solution per gram of body weight: Ketalar, 10 mg/mL; Rompun, 1 mg/mL) followed by heart puncture. […] The organ radioactivity was measured in a gamma-counter and uptake values of organs were calculated as percentage of injected dose per gram tissue (% ID/g). To test the in vivo binding specificity, a group of mice was co-injected with 7.5 nmol of non-labelled peptide (NOTA-PEG4-RM26), and biodistribution was measured at 0.5 h after injection.
# [2] = 0.5 h; 300 µg phosphoramidon co-injected; non-tumour bearing NMRI mice
# Method: Two groups of 4 mice were used for this experiment. Biodistribution of [^125I]I-Tyr-PEG2-RM26 was evaluated in female NMRI mice (weight: 29.6 ± 1.7 g). Non-tumour bearing mice as a control group were injected with 40 pmol of [^125I]I-Tyr-PEG2-RM26 (30 kBq, 100 μL in PBS) into the tail vein. Another group of mice was injected with same activity by co-injection of PA (15 µL of 20 mg/mL stock solution, 300 µg). After 0.5 h, mice were euthanized by dislocation of their neck, and blood samples were collected. Salivary glands, thyroid, lung, liver, spleen, pancreas, stomach, small intestine, kidneys, […], muscle, and bone were collected and weighed. The organ radioactivity was measured in a gamma-counter and uptake values of organs were calculated as percentage injected dose per gram tissue (% ID/g).
# PC-3 cells = assay: Cellular processing assay (membrane-bound and internalized radioactivity); assay type: cell-based, human; conditions: 1 nM, 37 °C
# Method: At predetermined time points (1, 2, 4, 8, 24 h), incubation media was aspirated, cells were washed with serum-free media, and membrane-bound and internalized radioactivity were collected using the method described earlier. The membrane-bound radiolabelled conjugate were removed from cells by treatment with 4 M urea solution in a 0.1 M glycine buffer, pH 2, for 5 min on ice. The cell debris containing the internalized conjugate was detached by treatment with 1 M NaOH. Radioactivity of samples was measured, and percentage of membrane-bound, internalized and total radioactivity was calculated. The experiments were performed in triplicate.
structure (smiles),measurement,setting,value
CC(C)C[C@H](NC(=O)C[C@H](O)[C@H](CC(C)C)NC(=O)[C@H](Cc1c[nH]cn1)NC(=O)CNC(=O)[C@@H](NC(=O)[C@H](C)NC(=O)[C@H](Cc1c[nH]c2ccccc12)NC(=O)[C@H](CCC(N)=O)NC(=O)[C@@H](Cc1ccccc1)NC(=O)COCCOCCNC(=O)[C@@H](N)Cc1ccc(O)c(I)c1)C(C)C)C(N)=O [[^125I]I-Tyr-PEG2-RM26] (H-[Tyr(3-I)][AEEA][dF]QWAVGH[Sta]L-NH2),"Uptake in pancreas, blocked vs non-blocked group",[1],significantly (p < 0.05) reduced
same,Influence of PA co-injection on blood clearance rate or uptake in normal non-targeted organs and tissues,[2],did not show any significant influence
same,"Uptake in GRPR-positive organs (pancreas, small intestines, stomach) after co-injection of PA",[2],No significant increase
same,Cellular processing pattern,PC-3 cells,quite fast internalization during the first hour

# Reference: article PMC6724035, “Evaluation of Tumor-Targeting Properties of an Antagonistic Bombesin Analogue RM26 Conjugated with a Non-Residualizing Radioiodine Label Comparison with a Radiometal-Labelled Counterpart” (Pharmaceutics, 2019)
